Assay results reported in patent US12084485B2 (Intarcia Therapeutics, Inc., priority 2020, dated 2024).

Key:
[1] = Acute food intake inhibition in Long Evans rats after bolus SC dosing (BioDAQ); type: in vivo, rat; conditions: 30 mcg SC bolus
[2] = Stability in DMSO or DI water at 37° C. (purity by LC/MS and HPLC); type: physicochemical
[3] = Solubility in saline or DI water at room temperature (visual inspection); type: physicochemical

In the case of `CC[C@H](C)[C@H](NC(=O)[C@H](Cc1ccccc1)NC(=O)[C@H](CCCCN)NC(=O)[C@H](CCCNC(=N)N)NC(=O)[C@H](C)NC(=O)[C@H](C)NC(=O)[C@H](CCC(=O)O)NC(=O)[C@H](CCCCNC(=O)CC[C@H](NC(=O)CC[C@H](NC(=O)COCCOCCNC(=O)CCCCCCCCCCCCCCCCCCC(=O)O)C(=O)O)C(=O)O)NC(=O)[C@H](CCC(=O)O)NC(=O)[C@H](Cc1ccc(O)cc1)NC(=O)[C@H](CCC(N)=O)NC(=O)[C@H](CCCCN)NC(=O)[C@H](CO)NC(=O)[C@H](CC(C)C)NC(=O)[C@H](CC(=O)O)NC(=O)[C@H](CO)NC(=O)[C@@H](NC(=O)[C@H](Cc1ccccc1)NC(=O)[C@@H](NC(=O)CNC(=O)[C@H](CCC(=O)O)NC(=O)C(C)(C)NC(=O)[C@@H](N)Cc1c[nH]cn1)[C@@H](C)O)[C@@H](C)O)C(=O)N[C@@H](CO)C(=O)N[C@@H](Cc1c[nH]c2ccccc12)C(=O)N[C@@H](CC(C)C)C(=O)N[C@@H](CCCCN)C(=O)N[C@@H](CC(N)=O)C(=O)NCC(=O)NCC(=O)N1CCC[C@H]1C(=O)N[C@@H](Cc1c[nH]cn1)C(=O)N[C@@H](CO)C(=O)NCC(=O)N[C@@H](C)C(=O)N1CCC[C@H]1C(=O)N1CCC[C@H]1C(=O)N1CCC[C@H]1C(=O)N[C@@H](CO)C(N)=O` [Compound A62], the “% Food Intake Inhibition from Vehicle, 0-24 hr” value ([1]; 0-24 hr) is reported as −37.1%, the “% Food Intake Inhibition from Vehicle, 25-48 hr” value ([1]; 25-48 hr) is reported as −48.8% and the “% Food Intake Inhibition from Vehicle, 49-72 hr” value ([1]; 49-72 hr) is reported as −47.4%. The “% Food Intake Inhibition from Vehicle, 73-96 hr” value ([1]; 73-96 hr) was 19.5%.
In the case of `CC[C@H](C)[C@H](NC(=O)[C@H](Cc1ccccc1)NC(=O)[C@H](CCC(=O)O)NC(=O)[C@H](CCCNC(=N)N)NC(=O)[C@H](C)NC(=O)[C@H](C)NC(=O)[C@H](CCC(=O)O)NC(=O)[C@H](CCNC(=O)CC[C@H](NC(=O)CC[C@H](NC(=O)COCCOCCNC(=O)CC[C@H](NC(=O)CC[C@H](NC(=O)CCCCCCCCCCCCCCCCCCC(=O)O)C(=O)O)C(=O)O)C(=O)O)C(=O)O)NC(=O)[C@H](CCC(=O)O)NC(=O)[C@H](Cc1ccc(O)cc1)NC(=O)[C@H](CCC(N)=O)NC(=O)[C@H](CCCCN)NC(=O)[C@H](CO)NC(=O)[C@H](CC(C)C)NC(=O)[C@H](CC(=O)O)NC(=O)[C@H](CO)NC(=O)[C@@H](NC(=O)[C@H](Cc1ccccc1)NC(=O)[C@@H](NC(=O)CNC(=O)[C@H](CCC(=O)O)NC(=O)C(C)(C)NC(=O)[C@@H](N)Cc1c[nH]cn1)[C@@H](C)O)[C@@H](C)O)C(=O)N[C@@H](CCC(=O)O)C(=O)N[C@@H](Cc1c[nH]c2ccccc12)C(=O)N[C@@H](CC(C)C)C(=O)N[C@@H](CCCCN)C(=O)N[C@@H](CC(N)=O)C(=O)NCC(=O)NCC(=O)N1CCC[C@H]1C(=O)N[C@@H](CO)C(=O)N[C@@H](CO)C(=O)NCC(=O)N[C@@H](C)C(=O)N1CCC[C@H]1C(=O)N1CCC[C@H]1C(=O)N1CCC[C@H]1C(=O)N[C@@H](CO)C(N)=O` [Compound A72], the “Stability @ 37° C. (% purity) Day 14” value [2] is reported as 98.7% and the “Stability @ RT (% purity) Day 28” value [2] is reported as 95.1%.
In the case of `CC[C@H](C)[C@H](NC(=O)[C@H](Cc1ccccc1)NC(=O)[C@H](CCC(=O)O)NC(=O)[C@H](CCCNC(=N)N)NC(=O)[C@H](C)NC(=O)[C@H](C)NC(=O)[C@H](CCC(=O)O)NC(=O)[C@H](CCCCNC(=O)CC[C@H](NC(=O)CC[C@H](NC(=O)COCCOCCNC(=O)CC[C@H](NC(=O)CC[C@H](NC(=O)CCCCCCCCCCCCCCCCCCC(=O)O)C(=O)O)C(=O)O)C(=O)O)C(=O)O)NC(=O)[C@H](CCC(=O)O)NC(=O)[C@H](Cc1ccc(O)cc1)NC(=O)[C@H](CCC(N)=O)NC(=O)[C@H](CCC(=O)O)NC(=O)[C@H](CO)NC(=O)[C@@H](NC(=O)[C@H](CC(=O)O)NC(=O)[C@H](CO)NC(=O)[C@@H](NC(=O)[C@H](Cc1ccccc1)NC(=O)[C@@H](NC(=O)CNC(=O)[C@H](CCC(=O)O)NC(=O)C(C)(C)NC(=O)[C@@H](N)Cc1c[nH]cn1)[C@@H](C)O)[C@@H](C)O)[C@@H](C)CC)C(=O)N[C@@H](CCC(=O)O)C(=O)N[C@@H](Cc1c[nH]c2ccccc12)C(=O)N[C@@H](CC(C)C)C(=O)N[C@@H](CCCCN)C(=O)N[C@@H](CC(N)=O)C(=O)NCC(=O)NCC(=O)N1CCC[C@H]1C(=O)N[C@@H](CO)C(=O)N[C@@H](CO)C(=O)NCC(=O)N[C@@H](C)C(=O)N1CCC[C@H]1C(=O)N1CCC[C@H]1C(=O)N1CCC[C@H]1C(=O)N[C@@H](CO)C(N)=O` [Compound A80], the solubility ([3]; Solubility (mg/mL) in DI water) is reported as over 78 mg/mL and the solubility ([3]; Solubility (mg/mL) in saline) is reported as over 75 mg/mL.
For `CC[C@H](C)[C@H](NC(=O)[C@H](Cc1ccccc1)NC(=O)[C@H](CCC(N)=O)NC(=O)[C@H](CCCNC(=N)N)NC(=O)[C@@H](NC(=O)[C@H](C)NC(=O)[C@H](CCC(=O)O)NC(=O)[C@H](CCCCNC(=O)CC[C@H](NC(=O)CC[C@H](NC(=O)COCCOCCNC(=O)CCCCCCCCCCCCCCCCCCC(=O)O)C(=O)O)C(=O)O)NC(=O)[C@H](CCC(=O)O)NC(=O)[C@H](Cc1ccc(O)cc1)NC(=O)[C@H](CCC(N)=O)NC(=O)[C@H](CCCCN)NC(=O)[C@H](CO)NC(=O)[C@H](CC(C)C)NC(=O)[C@H](CC(=O)O)NC(=O)[C@H](CO)NC(=O)[C@@H](NC(=O)[C@H](Cc1ccccc1)NC(=O)[C@@H](NC(=O)CNC(=O)[C@H](CCC(=O)O)NC(=O)C(C)(C)NC(=O)[C@@H](N)Cc1c[nH]cn1)[C@@H](C)O)[C@@H](C)O)C(C)C)C(=O)N[C@@H](CO)C(=O)N[C@@H](Cc1c[nH]c2ccccc12)C(=O)N[C@@H](CC(C)C)C(=O)N[C@@H](CCCCN)C(=O)N[C@@H](CC(N)=O)C(=O)NCC(=O)NCC(=O)N1CCC[C@H]1C(=O)N[C@@H](CO)C(=O)N[C@@H](CO)C(=O)NCC(=O)N[C@@H](C)C(=O)N1CCC[C@H]1C(=O)N1CCC[C@H]1C(=O)N1CCC[C@H]1C(=O)N[C@@H](CO)C(N)=O` [Compound A96], the solubility ([3]; Solubility (mg/mL) in DI water) was over 128 mg/mL and the solubility ([3]; Solubility (mg/mL) in saline) was over 133 mg/mL.
`CC[C@H](C)[C@H](NC(=O)[C@H](Cc1ccccc1)NC(=O)[C@H](CCC(=O)O)NC(=O)[C@H](CCCNC(=N)N)NC(=O)[C@@H](NC(=O)[C@H](C)NC(=O)[C@H](CCC(=O)O)NC(=O)[C@H](CCCCNC(=O)CC[C@H](NC(=O)CC[C@H](NC(=O)COCCOCCNC(=O)CCCCCCCCCCCCCCCCCCC(=O)O)C(=O)O)C(=O)O)NC(=O)[C@H](CCC(=O)O)NC(=O)[C@H](Cc1ccc(O)cc1)NC(=O)[C@H](CCC(N)=O)NC(=O)[C@H](CCCCN)NC(=O)[C@H](CO)NC(=O)[C@H](CC(C)C)NC(=O)[C@H](CC(=O)O)NC(=O)[C@H](CO)NC(=O)[C@@H](NC(=O)[C@H](Cc1ccccc1)NC(=O)[C@@H](NC(=O)CNC(=O)[C@H](CCC(=O)O)NC(=O)C(C)(C)NC(=O)[C@@H](N)Cc1c[nH]cn1)[C@@H](C)O)[C@@H](C)O)C(C)C)C(=O)N[C@@H](CCC(=O)O)C(=O)N[C@@H](Cc1c[nH]c2ccccc12)C(=O)N[C@@H](CC(C)C)C(=O)N[C@@H](CCCCN)C(=O)N[C@@H](CC(N)=O)C(=O)NCC(=O)NCC(=O)N1CCC[C@H]1C(=O)N[C@@H](Cc1c[nH]cn1)C(=O)N[C@@H](CO)C(=O)NCC(=O)N[C@@H](C)C(=O)N1CCC[C@H]1C(=O)N1CCC[C@H]1C(=O)N1CCC[C@H]1C(=O)N[C@@H](CO)C(N)=O` [Compound A152] showed a solubility ([3]; Solubility (mg/mL) in DI water) of over 109 mg/mL and a solubility ([3]; Solubility (mg/mL) in saline) of over 101 mg/mL.
